The record followed here is EP4763837A1, “PHOTOCHROMIC COMPOUND, CURABLE COMPOSITION, OPTICAL ARTICLE, LENS, AND EYEGLASSES” (TOKUYAMA CORPORATION, priority 2023, dated 2025).

Values joined by “and” are separate entries in the source; they are usually repeats but may differ in a detail not shown here. Equal values may be shown once.

Holding throughout (assay type): physicochemical
A short description of data set [1]: Photochromic property of binder sheet (photochromic layer made by binder method). The settings on record: for Color developing density at 23°C: absorbance difference after 240 seconds irradiation at the maximum absorption wavelength of the same line; for Residual ratio: A96/A0 x 100 after 96 hours accelerated degradation, xenon weather meter X25. The protocol:
(§1) The resulting photochromic laminates were evaluated by the below-mentioned methods. • (1) Photochromic property • [1] Maximum absorption wavelength (λmax): This is the maximum absorption wavelength after color development determined by a spectrophotometer manufactured by Otsuka Electronics Co., Ltd. (instantaneous multichannel photo detector MCPD3000) and was used as an index of a color tone upon color development. • [2] Color developing density at 23°C (A23): This is a difference between an absorbance {ε(240)} after irradiation with light at 23°C for 240 seconds and an absorbance ε(0) when not irradiated with light at the maximum absorption wavelength and was used as an index of a color developing density. The higher this value is, the better a photochromic property is. • [3] Color fading half-life at 23°C [τ1/2 (sec).)]: This is a period of time taken by an absorbance at the maximum absorption wavelength of a sample to decrease to 1/2 of {ε(240)-ε(0)} when irradiation is stopped after irradiation with light at 23°C for 240 seconds, and was used as an index of a color fading rate. The shorter this period of time is, the faster the color fading rate is. • [4] Residual ratio (A96/A0 x 100): The resulting photochromic plastic lens was subjected to accelerated degradation for 96 hours using a xenon weather meter X25 manufactured by Suga Test Instruments Co., Ltd. Color developing densities were then evaluated before and after a test, and a color developing density before the test (A0) and a color developing density after the test (A96) were measured. A ratio (A96/A0) was determined as a residual ratio and was used as an index of color development durability. The higher the residual ratio is, the more durable the color development is.
A binder sheet was produced as follows. The binder sheet was made by laminating a first optical sheet, a first adhesive layer, a photochromic layer, a second adhesive layer, and a second optical sheet in this order. A polycarbonate sheet with a thickness of 400 µm was used as the first optical sheet and the second optical sheet.
A 2 L four-necked flask equipped with a stirring blade, a condense tube, a thermometer, and a nitrogen gas inlet tube was charged with 315 parts by mass of polycarbonate diol with a number average molecular weight of 1000, 100 parts by mass of isophorone diisocyanate, and 72 parts by mass of toluene and reacted under a nitrogen atmosphere at 100°C for 7 hours. Thus, a urethane prepolymer with a terminal isocyanate group was synthesized. After the reaction of the above-mentioned urethane prepolymer was completed, the resulting reaction liquid was cooled to about 0°C and dissolved in 205 parts by mass of tertiary-butyl alcohol and 382 parts by mass of diethyl ketone, and then a temperature of the resulting liquid was kept at 0°C. Next, a mixed solution of 21.3 parts by mass of bis-(4-aminocyclohexyl)methane serving as a chain extender and 20 parts by mass of diethyl ketone was added dropwise thereto within 30 minutes and reacted at 0°C for 1 hour. Then, 8.1 parts by mass of 1,2,2,6,6-pentamethyl-4-aminopiperidine was added dropwise thereto and reacted at 0°C for 1 hour to obtain a solution of a terminal non-reactive urethane urea resin in diethylketone.
One hundred parts by mass of the resulting solution of a terminal non-reactive urethane urea resin, 6.3 parts by mass of Example 1 (a photochromic compound represented by Formula (1-7), an isomer mixture of 4,4'-methylenebis(cyclohexylisocyanate) (polyisocyanate compound)), 0.4 parts by mass of ethylenebis(oxyethylene) bis[3-(5-tert-butyl-4-hydroxy-m-tolyl) propionate] serving as an antioxidant, and 0.06 parts by mass of L-7001 manufactured by DuPont Toray Specialty Materials K.K. serving as a surfactant were added and stirred and mixed at room temperature to obtain a composition for forming a photochromic layer. […]

The nature of data set [2]: Photochromic property of photochromic cured product made by kneading method. The settings on record: for Residual ratio: A96/A0 x 100 after 96 hours accelerated degradation, xenon weather meter X25; for Color developing density at 23°C: absorbance difference after 240 seconds irradiation at the maximum absorption wavelength of the same line. Here is the method: as §1
First, the photochromic compound obtained in Example 1, an additive, and a polymerizable compound were mixed to obtain a curable composition. The polymerizable compound was a combination of the following polymerizable monomers: • · 1,3-Bis(isocyanatomethyl)cyclohexane: 36.7 parts by mass • · Pentaerythritol tetrakis(3-mercaptopropionate): 39.4 parts by mass • · Polyoxyethylene polyoxypropylene lauryl ether (WONDERSURF 140 manufactured by AOKI OIL INDUSTRIAL Co., Ltd.): 17.4 parts by mass • · 1-Decanethiol: 2.8 parts by mass • · RX-1 prepared by the method described in Patent Document 14: 3.8 parts by mass
Note that, in the curable composition, the photochromic compound was added in an amount of 0.106 mmol taking a total amount of the polymerizable monomers as 100 g.
The following additives were used: • · Dimethyltin dichloride: 0.05 parts by mass • · Irganox 245: 0.1 parts by mass • · 2-Ethylhexyl […]: 0.6 parts by mass
After the thus-prepared curable composition was thoroughly defoamed, it was poured into a glass mold with a gap of 1 mm and polymerized by casting polymerization. […] After the polymerization, the resulting cured product was removed from the glass mold to obtain a photochromic cured product with a thickness of 1 mm. The resulting photochromic cured product was evaluated in the same manner as for Example 23.
Photochromic cured products were produced using the photochromic compounds shown in Table 4 in the same manner as in Example 50.

Data set [3] is described as follows: Photochromic property of photochromic laminate made by coating method. The conditions noted are these: for Residual ratio: laminate by coating method, A96/A0 x 100 after 96 hours accelerated degradation, xenon weather meter X25. The essentials: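 Compound at 0.25 mmol per 100 g methacrylate monomer mix, spin-coated 40 µm on a primed thiourethane lens, photocured 90 s under N2, then 110°C for 1 h. λmax and A23 measured after 240 s irradiation at 23°C; τ1/2 is time to half-fade after irradiation stops. Residual ratio A96/A0 after 96 h xenon weathering.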

On to `CCCCC1(CC)c2ccccc2-c2c1c1c(c3cc(OC)c(C)cc23)OC(c2ccc(OC)cc2)(c2ccc(OCCC)cc2)C=C1` (stereo not drawn) [Formula (2-2)], for which the “Color developing density at 23°C” value was 0.89 - and 0.83 - in data set [1]; 0.90 - and 0.89 - in data set [2]. Besides, the Residual ratio in data set [2] was 78%; in data set [3], 68%. Moreover, in data set [3], the “Color fading half-life at 23°C” value was 1.65 min.
On to `CCCC1(C)c2cc(C)ccc2-c2c1c1c(c3cc(C)ccc23)OC(c2ccc(C)cc2)(c2ccc(OC)cc2)C=C1` (stereo not drawn) [Formula (1-5)], for which, in data set [1], the Residual ratio is on record as 82%; the “Color developing density at 23°C” value is 0.65 - and 1.11 -. In data set [2], the Residual ratio turned out to be 71%; the “Color developing density at 23°C” value was 0.66 - and 1.10 -. In addition, in data set [3], the “Color fading half-life at 23°C” value turned out to be 2.28 min and the Residual ratio was found to be 62%.
For `CCCC1(CC)c2ccccc2-c2c1c1c(c3cc(OC)c(Sc4c(C)cccc4C)cc23)OC(c2ccc(OC)cc2)(c2ccc(N3CCOCC3)cc2)C=C1` (stereo not drawn) [Formula (4-5)], in data set [1], the Residual ratio was determined as 90%; the “Color developing density at 23°C” value is 0.76 - and 0.75 -. In data set [2], the Residual ratio is 79% and 77%; the “Color developing density at 23°C” value is 0.77 - and 0.74 -. In addition, in data set [3], the “Color fading half-life at 23°C” value worked out at 0.717 min.
As for `CCC1(C)c2ccccc2-c2c1c1c(c3cc(OC)c(-c4ccc(OC)cc4OC)cc23)OC(c2ccc(OC)cc2)(c2ccc(N(C)c3ccccc3)cc2)C=C1` (stereo not drawn) [Formula (13-2)], the Residual ratio was 82% and 83% in data set [1]; 72% and 71% in data set [2]; 63% in data set [3]. For the same compound, the “Color developing density at 23°C” value in data set [1] is 0.74 - and 1.05 -; in data set [2] it was 0.75 - and 1.05 -.
